Measurements from patent US20030077573A1, “Methods of identifying compounds useful in the inhibition of neurodegenerative disease” (priority 1999, published 2003).
Bridge positions count the residues as written; N and C are the ends. Ends that are not written are not given here.

Assays:
rat aortic rings [1] = assay: vasorelaxation assay, phenylephrine-constricted rat aortic rings; conditions: for effect on the relaxation induced by SNP: vessels constricted with 3.5 nM PE, SNP 0.1, 1, 2 μM, Aβ1-40 1 μM or ODQ 10 μM
Method: (§1) Vasoactivity is measured in rat aortic rings using the system previously described, for example by Crawford, F., et al., The vasoactivity of Aβ peptides, Ann. N. Y. Acad. Sci. 826:3546, (1997); Crawford, F., et al., Characteristics of the in vitro vasoactivity of beta-amyloid peptides, Exp. Neurol. 150:159-168 (1998); Paris, D., et al., Isoform-specific vasoconstriction induced by Apolipoprotein E and modulation of this effect by Alzheimer's β-amyloid peptide. Neurosci. Lett. 256:73-76, (1998); Paris, D., et al., Role of peroxynitrite in the vasoactive and cytotoxic properties of Alzheimer's β-amyloid1-40 peptide, Exp. Neurol. 152:116-122 (1998); and Thomas, T. N., et al., Vasoactive effects and free radical generation by β-amyloid peptides. U.S. Pat. No. 6,011,019. Jan. 4, 2000. Normal male Sprague-Dawley rats (7-8 months old) are sacrificed, and freshly dissected rat aortae are segmented into 3 mm rings and suspended in Kreb's buffer on hooks. These hooks are connected to an isometric transducer linked to a MacLab system. Aortic rings are equilibrated in the tissue bath system for two hours with the Kreb's buffer changed every 30 min.
For the vasorelaxation assay, constricted aortic rings are pre-treated for 5 minutes with 1 μM of Aβ with a single dose of phenylephrine (3.5×10^−9 M) along with untreated controls. After waiting for stabilization of vasotension, aortic segments are subjected to a range of SNP doses. Aortic rings pre-constricted with a single dose of phenylephrine (3.5×10^−9 M) are treated with 10 μM ODQ 5 minutes prior to the addition of several doses of SNP. The effect of 10 μM of dipyridamole is also investigated on vessels pre-constricted with 3.5×10^−9 M of phenylephrine. Data are standardized such that the maximum PE-induced constriction is fixed at 100%.

rat aortic rings [2] = assay: vasoconstriction assay, ET-1-induced constriction of rat aortic rings; conditions: ET-1 1-5 nM, ODQ 10 μM, YC-1 5 μM, L-NAME 100 μM, dipyridamole 10 μM; for effect on Aβ-enhancement of ET-1-induced vasoconstriction (agent + Aβ): 1 μM Aβ1-40, ANOVA interaction; for effect on ET-1-induced vasoconstriction (agent alone): Aβ1-40 1 μM
Method: as §1
For the vasoconstriction assay, the first group of aortic rings are pre-treated with 10 μM ODQ 2 minutes prior to the addition of 1 μM of Aβ1-40. After 5 minutes of incubation with Aβ, the vessels are then subjected to a dose range of ET-1 (from 1 nM to 5 nM). The second set of vessels are treated with Aβ prior to the addition of ET-1. A third set received ODQ treatment followed by ET-1, and the fourth group (control) only received ET-1 treatment. A similar protocol is applied with dipyridamole (10 μM), and YC-1 (5 μM). In all cases the percentage contraction as compared to baseline is determined for each dose of ET-1 used. The means and standard errors (SEs) of all such values are calculated.

[3] = tested on: murine microglial cell line (N9); assay: LTB4 release from N9 microglial cells; type: cell-based; conditions: 18 hours; for effect on Aβ-induced microglial LTB4 release: Aβ1-40 500 nM + drug (dipyridamole 10 μM)
Method: The murine microglial cell line (N9) is kindly provided by Dr. Paola Ricciardi-Castagnoli (Cellular Pharmacology Center, Milan, Italy) and cells are grown in RPMI 1640 medium supplemented with 5% fetal calf serum, 2 mM glutamine, 100 U/mL penicillin, 0.1 μg/mL streptomycin and 0.05 mM 2-mercaptoethanol. Microglial cells are seeded at 50,000 cells/well in 6-well plates (Falcon, France) and treated with Aβ1-40 (500 nM), dipyridamole (10 μM) or untreated (control) and incubated for 18 hours. Cell supernatants are then collected and immediately frozen at −80° C.
Cell supernatants (50 μL) are used in the LTB4 assay, and each sample is assayed in duplicate. Manipulations are performed in accordance with the manufacturer's instruction. A spectramax 250 spectrophotometer (Molecular Devices, San Diego, USA) is used to measure absorbance at 405 nm and a standard curve is plotted using a 4-parameter model. Cell extracts for protein determination are obtained by lysing microglial cells in 110 μL of ice cold lysis buffer ([…] pH 7.5, 150 mM NaCl, 1 mM EDTA, 1 mM EGTA, 1% Triton X-100, 2.5 mM sodium pyrophosphate, 1 mM β-Glycerophosphate, 1 mM Na3VO4, 1 μg/ml leupeptin and 1 mM phenylmethylsulfonyl fluoride). Protein concentrations are determined for each sample using the Biorad reagent according to the manufacturer's instruction. LTB4 data are thus expressed as pg LTB4 /mg cellular protein.

[4] = tested on: N9 murine microglial cell line; assay: LPS-induced TNF-α release from N9 microglia; type: cell-based
rat aortic rings [5] = assay: quantification of cGMP and cAMP levels in rat aortae (EIA)
Method: Aortic rings are equilibrated in Kreb's buffer for 2 hours and then constricted with a serial dose range of ET-1 (from 1 nM to 5 nM) in the presence or absence of 1 μM of Aβ. Immediately following maximum vasoconstriction (or, in the case of control rings, after 2 hours of equilibration in Kreb's buffer), aortae are frozen in liquid nitrogen. Vessels are then homogenized in 10% trichloracetic acid (TCA) diluted in PBS (at 4° C.) and centrifuged to pellet TCA precipitated proteins. Supernatants are collected and TCA is then removed from samples by three extractions with diethyl ether saturated in deionized water. Residual ether is removed from the sample by heating samples to 70° C. for 10 minutes. Both cGMP and cAMP levels are quantified using competitive binding EIAs (Alexis Biochemicals, San Diego, Calif.) according to the manufacturer's instruction.

[6] = ET-1 1-5 nM vs untreated control

**Q.** O=c1onc2cnc3ccccc3n12 [ODQ, 1H-[1,2,4]oxadiazolo[4,3,-α]quinoxalin-1-one] was tested. Which “effect on the relaxation induced by SNP” value (rat aortic rings [1]) did it give?
**A.** blocks the relaxation induced by this NO donor

**Q.** And the “effect on Aβ-enhancement of ET-1-induced vasoconstriction (agent + Aβ)” value (rat aortic rings [2])?
**A.** constriction which is only additive

**Q.** What about the “effect on ET-1-induced vasoconstriction (agent alone)” value (rat aortic rings [2]) of the same molecule?
**A.** Neither ODQ or Aβ alone are able to potentiate vasoconstriction induced by ET-1

**Q.** Which results are given for COC(=O)[C@@H](N)CCCNC(=N)N[N+](=O)[O-] [L-NAME, N-ω-nitro-L-arginine methyl ester]?
**A.** effect on Aβ-enhancement of ET-1-induced vasoconstriction (agent + Aβ) (rat aortic rings [2]): no statistical interaction is observed; effect on ET-1-induced vasoconstriction (agent alone) (rat aortic rings [2]): does not significantly increase ET-1-induced vasoconstriction

**Q.** How did the “effect on Aβ-induced microglial LTB4 release” value [3] turn out when Nc1nc2c(nc(Br)n2[C@@H]2O[C@@H]3COP(=O)(O)O[C@H]3[C@H]2O)c(=O)[nH]1 [8-Br cGMP, 8-bromo cGMP] was run?
**A.** completely block Aβ-induced microglial LTB4 release

**Q.** What about the “effect on LPS-induced microglial TNF-α release” value ([4]; 8-Br cGMP 1 μM, data not shown) of the same molecule?
**A.** partially inhibit LPS-induced microglial TNF-α release

**Q.** What about the “effect on LPS-induced microglial TNF-α release” value ([4]; 8-Br cGMP 5 μM, LPS 2.5 ng/mL, 18 h) of the same molecule?
**A.** completely inhibit LPS-induced microglial TNF-α release

**Q.** Which “relaxation of aortic rings constricted with phenylephrine” value (rat aortic rings [1]; 10 μM dipyridamole, 3.5 nM PE) does the source give for OCCN(CCO)c1nc(N2CCCCC2)c2nc(N(CCO)CCO)nc(N3CCCCC3)c2n1 [dipyridamole] here?
**A.** induced potent relaxation

**Q.** What about the “effect on Aβ opposition to relaxation” value (rat aortic rings [1]; 10 μM dipyridamole, Aβ-treated vs control vessels, PE-constricted) of the same molecule?
**A.** blocks the opposition to relaxation normally induced by Aβ

**Q.** What about the “relaxant effect on quiescent rings” value (rat aortic rings [1]; 10 μM dipyridamole, data not shown) of the same molecule?
**A.** no significant relaxant effect

**Q.** And the “effect on Aβ-enhancement of ET-1-induced vasoconstriction (agent + Aβ)” value (rat aortic rings [2])?
**A.** blocks Aβ-induced vasoconstriction in a statistically interactive manner

**Q.** What about the “effect on ET-1-induced vasoconstriction (agent alone)” value (rat aortic rings [2]) of the same molecule?
**A.** opposes ET-1-induced vasoconstriction in an ET-1 dose-dependent manner

**Q.** What about the “effect on Aβ-induced microglial LTB4 release” value [3] of the same molecule?
**A.** completely prevents the increased LTB4 production induced by Aβ

**Q.** What about the “effect on LPS-induced microglial activation (TNF-α release)” value ([4]; LPS 2.5 ng/mL, 18 h, dipyridamole 10 μM, SNP 10 μM, YC-1 10 μM) of the same molecule?
**A.** markedly reduce microglial activation induced by LPS

**Q.** “Aβ1-40: freshly solubilized β-amyloid peptide Aβ1-40, supplied by QCB” was tested. Which “effect on the relaxation induced by SNP” value (rat aortic rings [1]) did it give?
**A.** relaxation induced by SNP, an NO-donor, is reduced

**Q.** And the “cAMP levels in rat aortic rings” value (rat aortic rings [5]; 1 μM Aβ + ET-1 vs ET-1 alone)?
**A.** not able to modulate cAMP levels

**Q.** And the “cGMP levels in rat aortic rings” value (rat aortic rings [5]; 1 μM Aβ + ET-1 vs ET-1 alone)?
**A.** significantly lower compared to ET-1 treatment alone

**Q.** What about the “microglial LTB4 release” value ([3]; Aβ1-40 500 nM, vs untreated cells) of the same molecule?
**A.** significant LTB4 release

**Q.** What does the source list for “ET-1: Endothelin-1, one of the most potent cerebrovascular vasoconstrictors (CSCSSLMDKECVYFCHLDIIW; disulfide 1-15, 3-11; ends not checked; UniProt P05305 53-73, looked up)”?
**A.** cAMP levels in rat aortic rings (rat aortic rings [5]; [6]): increase; cGMP levels in rat aortic rings (rat aortic rings [5]; [6]): increase
